Laboratory results: patent US20130005699A1, “METHODS AND PRODUCTS FOR TREATMENT OF DISEASES” (DMI ACQUISITION CORP., priority 2009, published 2013)

Assays:
[1] = tested on: HUVECs; assay: HUVEC tube formation on matrigel plugs; type: cell-based, human; settings: 18 hours, 5% FCS
Protocol: To investigate the formation of capillary-like structures by HUVECs, the Angiogenesis System Endothelial Cell Tube Formation Assay was purchased from BD Biosciences (San Jose, Calif.) and used according to the manufacturer's protocol. In brief, 100,000 HUVECs were seeded onto rehydrated matrigel plugs in 96 well tissue culture plates in the presence of 5% FCS to induce tube formation. […] After 18 hours the wells were photographed using a Kodak DCS Pro SLR/N digital camera (Rochester, N.Y.) mounted on an inverted microscope. Ethanol treated wells were included to determine if the vehicle had any effects on cell differentiation.

[2] = tested on: HUVECs; assay: HUVEC scratch migration assay; type: cell-based, human; settings: for Mean pixels (gap): 24 hours, diluent control 1264.00
Protocol: Passage 8 HUVECs, lot number 8750 (obtained from Lonza), were plated in 6-well plates (ICS BioExpress) in endothelial growth medium-2 (EGM-2) complete medium (obtained from Lonza). […] The monolayers were then “scratched” with a 1000 μl pipet tip and washed two times with warm EGM-2 medium. […] The wells were photographed again. The gaps were measured in each photograph using Adobe Photoshop software, and gap measurements are presented as the number of pixels in the gap.

[3] = tested on: human retinal endothelial cells; assay: TER of endothelial cell monolayers (Example 4), retinal; type: cell-based; settings: Danazol 1.0 μM, TER measurements/cm^2 of insert, blank subtracted
Protocol: (§1) […]. Assays were also performed in the same manner using passage 8 human brain endothelial cells and passage 8 human umbilical vein endothelial cells.
(§2) An initial TER measurement was taken for each insert using EVOM^2 voltohmmeter connected to an STX100 electrode (both from World Precision Instruments). Measurements were also taken at 24, 48, 72 and 144 hours. All data are presented as TER measurements/cm^2 of insert with TER of blank inserts subtracted.

[4] = tested on: Human Brain Endothelial Cells; assay: TER of endothelial cell monolayers (Example 4), brain; type: cell-based; settings: Danazol 1.0 μM, TER measurements/cm^2 of insert, blank subtracted
Protocol: as §1, §2

[5] = tested on: Human Umbilical Vein Endothelial Cells; assay: TER of endothelial cell monolayers (Example 4), umbilical vein; type: cell-based; settings: Danazol 1.0 μM, TER measurements/cm^2 of insert, blank subtracted
Protocol: as §1, §2

[6] = tested on: Akt; assay: Akt phosphorylation (CASE ELISA kit for AKT S473) in retinal endothelial cells; type: cell-based, human; settings: 2 hours
Protocol: The cells were grown in a 25 cm^2 flask to near confluence in EGM-2 medium (Lonza, Walkersville, Md.) containing 2% fetal calf serum (Lonza). […] The plate was incubated at 37° C. with 5% CO2 for 24 hours. […] After this incubation, the cells were fixed immediately with 4% formaldehyde, refrigerated, and the extent of phosphorylation of Akt determined using the Akt Cellular Activation of Signaling ELISA Kit (CASE™ Kit for AKT 5473; SABiosciences, Frederick, Md.) following the manufacturer's protocols. The CASE™ Kit for AKT S473 quantifies the amount of activated (phosphorylated) Akt protein relative to total Akt protein in parallel assays using a conventional ELISA format with colorimetric detection. The Akt phosphorylation site is serine 473 and is recognized by one of the antibodies used in one of the two parallel assays to provide a measure of activated Akt protein. The other antibody used in the other parallel assay recognizes Akt to provide a measure of total Akt protein. Both primary antibodies are detected using a horseradish peroxidase-labeled secondary antibody. Addition of the manufacturer's Developing Solution for 10 minutes, followed by addition of the manufacturer's Stop Solution, produces the result which can be measured colorimetrically.

[7] = tested on: human retinal endothelial cells; assay: Actin stress fiber formation, rhodamine-phalloidin staining, VEGF (Example 8); type: cell-based; settings: for change of the VEGF stress fiber pattern: then VEGF 25 ng/ml 30 minutes; for F-actin staining pattern: no VEGF
Protocol: . […] To counter-stain for nuclei, 100 μl of a 3 μM DAPI (4,6-diamidino-2-phenylindole, dilactate (Invitrogen)) solution was added to each well. After 5 minutes, the cells were washed two times with 100 μl PBS.

[8] = tested on: human retinal endothelial cells; assay: ECIS resistance (Example 12), retinal cells
[9] = tested on: human renal glomerular microvascular endothelial cells; assay: ECIS resistance (Example 12), glomerular cells; settings: danazol 1 μM alone
[10] = tested on: human retinal endothelial cells; assay: Actin stress fiber formation (Example 11), retinal cells; settings: for F-actin staining pattern: danazol 1 μM alone
[11] = tested on: human retinal endothelial cells; assay: TER of retinal endothelial cell monolayers with danazol and steroid receptor antagonists (Example 6); settings: 0.1 μM of each additive, background subtracted, divided by 0.33 cm^2
[12] = tested on: human retinal endothelial cells; assay: TER of retinal endothelial cell monolayers with danazol, steroid receptor antagonists and hormones (Example 10); settings: 0.1 μM of each additive, background subtracted, divided by 0.33 cm^2

C#C[C@]1(O)CC[C@H]2[C@@H]3CCC4=Cc5oncc5C[C@]4(C)[C@H]3CC[C@@]21C [Danazol, 17α-pregna-2,4-dien-20-yno[2,3-d]-isoxazol-17β-ol]
effect on tube formation ([1]; 1 μM): no effect on tube formation
effect on tube formation ([1]; 10 μM): no effect on tube formation
effect on tube formation ([1]; 50 μM): effective inhibitor of tube formation
Mean pixels (gap) ([2]; Danazol 10 μM): 1004.00 pixels
Mean pixels (gap) ([2]; Danazol 25 μM): 1184.00 pixels
Mean pixels (gap) ([2]; Danazol 50 μM): 895.33 pixels
Mean pixels (gap) ([2]; Danazol 75 μM): 317.33 pixels
Mean pixels (gap) ([2]; Danazol 100 μM): 178.67 pixels
inhibition at 10 µM ([2]; Homo sapiens, HUVEC, 24 h): 21.1%
inhibition at 25 µM ([2]; Homo sapiens, HUVEC, 24 h): 5.5%
inhibition at 50 µM ([2]; Homo sapiens, HUVEC, 24 h): 27.6%
inhibition at 75 µM ([2]; Homo sapiens, HUVEC, 24 h): 74.6%
inhibition at 100 µM ([2]; Homo sapiens, HUVEC, 24 h): 85.9%
TER at 0 Hours ([3]; None 32.3): 21.7
TER at 24 Hours ([3]; None 96.0): 132.3
TER at 48 Hours ([3]; None 144.4): 182.3
TER at 72 Hours ([3]; None 148.0): 217.7
TER at 144 Hours ([3]; None 219.7): 234.8
TER at 0 Hours ([4]; None 41.4): 32.3
TER at 24 Hours ([4]; None 115.7): 139.9
TER at 144 Hours ([4]; None 151.5): 125.8
TER at 72 Hours ([4]; None 154.0): 149.5
TER at 48 Hours ([4]; None 176.3): 188.4
TER at 0 Hours ([5]; None 82.3): 70.2
TER at 24 Hours ([5]; None 217.2): 246.0
TER at 72 Hours ([5]; None 226.8): 270.7
TER at 144 Hours ([5]; None 227.3): 286.4
TER at 48 Hours ([5]; None 276.3): 364.1
PERCENT INCREASE IN AKT PHOSPHORYLATION VERSUS CONTROL ([6]; 0.5 μM danazol): 73.8%
PERCENT INCREASE IN AKT PHOSPHORYLATION VERSUS CONTROL ([6]; 1.0 μM danazol): 66.7%
PERCENT INCREASE IN AKT PHOSPHORYLATION VERSUS CONTROL ([6]; 2.0 μM danazol): 101.6%
PERCENT INCREASE IN AKT PHOSPHORYLATION VERSUS CONTROL ([6]; 5.0 μM danazol): 40.5%
PERCENT INCREASE IN AKT PHOSPHORYLATION VERSUS CONTROL ([6]; 10.0 μM danazol): 115.3%
PERCENT INCREASE IN AKT PHOSPHORYLATION VERSUS CONTROL ([6]; 20.0 μM danazol): 161.3%
PERCENT INCREASE IN AKT PHOSPHORYLATION VERSUS CONTROL ([6]; 50.0 μM danazol): 98.6%
change of the VEGF stress fiber pattern ([7]; danazol 0.1 μM 30 minutes): made the stress fibers less pronounced and some diffuse staining appeared
F-actin staining pattern ([7]; danazol 0.1 μM): diffuse F-actin staining throughout the cytoplasm
change of the VEGF stress fiber pattern ([7]; danazol 1.0 μM 30 minutes): showed fewer thick stress fibers, but focal points were seen on contact surfaces
F-actin staining pattern ([7]; danazol 1.0 μM): the diffuse staining persisted, but stress fibers and focal points around the perimeter of most cells were visible
change of the VEGF stress fiber pattern ([7]; danazol 10.0 μM 30 minutes): showed strong stress fiber development with focal points
F-actin staining pattern ([7]; danazol 10.0 μM): stress fiber development and focal points were seen
start of increase of ECIS compared to untreated cells, after treatment ([8]; 1.0 μM danazol alone): 1.5 to 2.0 h
persistence of increased ECIS ([8]; 1 μM of each compound, monitored for 90 hours): 5 h
period of greatest increase of ECIS [9]: 60 to 90 h
F-actin staining pattern ([10]; 15 minutes): perinuclear staining
F-actin staining pattern ([10]; 3 hours): diffuse staining throughout the cells with ruffled edges on many of the cells
F-actin staining pattern ([10]; 24 hours): staining similar to untreated controls
effect on S1P-induced cortical actin rings ([10]; danazol 1 μM with S1P 1 μM): seemed to enhance the cortical rings at 3 hours
effect on TNFα-induced stress fibers ([10]; danazol 1 μM with TNFα 1 ng/ml, all times): decreased the stress fiber formation and/or the thickness of the fibers at all times
TER at 30 minutes ([11]; None 216.22): 255.26
TER at 120 minutes ([11]; None 234.23): 249.35
TER at 60 minutes ([11]; None 249.25): 267.27
TER at 24 Hours ([11]; None 312.31): 366.37
TER at 5 minutes ([12]; None 250.30): 280.03
TER at 60 minutes ([12]; None 251.00): 313.06
TER at 30 minutes ([12]; None 262.31): 311.56
TER at 24 Hours ([12]; None 287.09): 348.35
